Assay results reported in ChEMBL document CHEMBL4507319 (2021).

Columns and labels:
Conditions in all cases: Compound concentration 1.0 uM
[1] = molecular target: Myosin light chain kinase 2, skeletal/cardiac muscle (Homo sapiens) (UniProt Q9H1R3); assay: MYLK2(h) Eurofins kinase panel
[2] = molecular target: cAMP-dependent protein kinase catalytic subunit beta (Homo sapiens) (UniProt P22694); assay: PKAcβ(h) Eurofins kinase panel
[3] = molecular target: Serine/threonine-protein kinase PLK3 (Homo sapiens) (UniProt Q9H4B4); assay: Plk3(h) Eurofins kinase panel
[4] = molecular target: Receptor tyrosine-protein kinase erbB-4 (Homo sapiens) (UniProt Q15303); assay: ErbB4(h) Eurofins kinase panel
[5] = molecular target: Mitogen-activated protein kinase 8 (Homo sapiens) (UniProt P45983); assay: JNK1alpha1(h) Eurofins kinase panel
[6] = molecular target: T1, Beta-adrenergic receptor kinase 1 (Homo sapiens) (UniProt P25098); assay: GRK2(h) Eurofins kinase panel
T1 sequence (whole entry): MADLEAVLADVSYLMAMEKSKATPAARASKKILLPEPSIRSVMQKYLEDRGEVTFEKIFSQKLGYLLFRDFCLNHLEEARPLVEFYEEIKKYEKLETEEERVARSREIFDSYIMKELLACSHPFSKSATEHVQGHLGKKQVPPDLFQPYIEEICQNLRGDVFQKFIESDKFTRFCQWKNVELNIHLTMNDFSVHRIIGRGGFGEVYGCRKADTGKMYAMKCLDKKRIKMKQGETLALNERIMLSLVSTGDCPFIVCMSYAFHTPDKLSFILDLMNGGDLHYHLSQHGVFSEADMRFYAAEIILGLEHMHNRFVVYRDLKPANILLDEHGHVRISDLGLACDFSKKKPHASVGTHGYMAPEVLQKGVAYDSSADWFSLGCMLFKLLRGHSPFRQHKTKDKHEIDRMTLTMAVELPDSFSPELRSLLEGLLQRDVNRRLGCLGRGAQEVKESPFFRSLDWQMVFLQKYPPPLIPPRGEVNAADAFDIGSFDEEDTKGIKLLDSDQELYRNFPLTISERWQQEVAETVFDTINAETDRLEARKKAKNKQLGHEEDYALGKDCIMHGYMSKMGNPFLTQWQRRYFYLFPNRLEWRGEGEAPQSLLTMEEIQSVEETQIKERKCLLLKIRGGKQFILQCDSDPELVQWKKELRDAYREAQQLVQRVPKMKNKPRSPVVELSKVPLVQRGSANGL

[7] = molecular target: T2, Mitogen-activated protein kinase kinase kinase 2 (Homo sapiens) (UniProt Q9Y2U5); assay: MEKK2(h) Eurofins kinase panel
T2 sequence (whole entry): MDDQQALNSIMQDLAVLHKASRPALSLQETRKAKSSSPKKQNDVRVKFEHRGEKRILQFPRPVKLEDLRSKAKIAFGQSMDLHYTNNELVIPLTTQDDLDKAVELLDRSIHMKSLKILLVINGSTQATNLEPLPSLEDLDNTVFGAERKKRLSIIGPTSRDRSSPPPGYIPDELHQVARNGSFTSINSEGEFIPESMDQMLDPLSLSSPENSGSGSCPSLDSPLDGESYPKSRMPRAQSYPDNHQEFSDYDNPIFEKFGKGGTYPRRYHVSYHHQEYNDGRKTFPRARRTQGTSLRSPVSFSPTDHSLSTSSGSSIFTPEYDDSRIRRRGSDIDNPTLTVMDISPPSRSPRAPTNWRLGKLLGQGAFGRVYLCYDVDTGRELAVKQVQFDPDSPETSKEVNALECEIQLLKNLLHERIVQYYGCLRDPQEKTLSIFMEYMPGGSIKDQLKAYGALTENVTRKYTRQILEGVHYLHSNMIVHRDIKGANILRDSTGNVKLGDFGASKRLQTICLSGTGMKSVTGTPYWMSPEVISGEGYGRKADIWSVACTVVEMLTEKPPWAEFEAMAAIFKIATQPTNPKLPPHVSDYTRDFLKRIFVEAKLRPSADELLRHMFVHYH

[8] = molecular target: T3, Serine/threonine-protein kinase Nek11 (Homo sapiens) (UniProt Q8NG66); assay: NEK11(h) Eurofins kinase panel
T3 sequence (whole entry): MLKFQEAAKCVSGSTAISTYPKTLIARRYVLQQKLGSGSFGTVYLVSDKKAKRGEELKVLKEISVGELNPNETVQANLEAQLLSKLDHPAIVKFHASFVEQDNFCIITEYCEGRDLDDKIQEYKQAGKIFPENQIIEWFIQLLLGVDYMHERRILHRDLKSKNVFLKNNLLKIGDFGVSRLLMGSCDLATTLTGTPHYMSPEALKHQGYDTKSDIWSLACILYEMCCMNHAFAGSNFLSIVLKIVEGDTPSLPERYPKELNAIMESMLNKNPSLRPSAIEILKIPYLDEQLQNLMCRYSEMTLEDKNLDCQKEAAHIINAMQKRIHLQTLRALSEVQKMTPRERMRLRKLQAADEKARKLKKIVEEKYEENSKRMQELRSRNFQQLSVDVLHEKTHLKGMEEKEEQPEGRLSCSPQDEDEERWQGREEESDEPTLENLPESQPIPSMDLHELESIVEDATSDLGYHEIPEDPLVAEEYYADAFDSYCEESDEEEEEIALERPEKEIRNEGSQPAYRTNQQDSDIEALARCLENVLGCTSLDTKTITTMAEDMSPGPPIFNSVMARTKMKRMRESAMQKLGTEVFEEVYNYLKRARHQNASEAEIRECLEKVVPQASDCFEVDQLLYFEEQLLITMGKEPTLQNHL

[9] = molecular target: G protein-coupled receptor kinase 5 (Homo sapiens) (UniProt P34947); assay: GRK5(h) Eurofins kinase panel
[10] = molecular target: Eukaryotic translation initiation factor 2-alpha kinase 1 (Homo sapiens) (UniProt Q9BQI3); assay: HRI(h) Eurofins kinase panel
[11] = molecular target: Homeodomain-interacting protein kinase 2 (Homo sapiens) (UniProt Q9H2X6); assay: HIPK2(h) Eurofins kinase panel
[12] = molecular target: Tyrosine-protein kinase JAK2 (Homo sapiens) (UniProt O60674); assay: JAK2(h) Eurofins kinase panel
[13] = molecular target: Calcium/calmodulin-dependent protein kinase type II subunit beta (Homo sapiens) (UniProt Q13554); assay: CaMKIIbeta(h) Eurofins kinase panel

Measured: % residual kinase activity

Sequence of Receptor tyrosine-protein kinase erbB-4 (Homo sapiens) (Q15303 whole entry): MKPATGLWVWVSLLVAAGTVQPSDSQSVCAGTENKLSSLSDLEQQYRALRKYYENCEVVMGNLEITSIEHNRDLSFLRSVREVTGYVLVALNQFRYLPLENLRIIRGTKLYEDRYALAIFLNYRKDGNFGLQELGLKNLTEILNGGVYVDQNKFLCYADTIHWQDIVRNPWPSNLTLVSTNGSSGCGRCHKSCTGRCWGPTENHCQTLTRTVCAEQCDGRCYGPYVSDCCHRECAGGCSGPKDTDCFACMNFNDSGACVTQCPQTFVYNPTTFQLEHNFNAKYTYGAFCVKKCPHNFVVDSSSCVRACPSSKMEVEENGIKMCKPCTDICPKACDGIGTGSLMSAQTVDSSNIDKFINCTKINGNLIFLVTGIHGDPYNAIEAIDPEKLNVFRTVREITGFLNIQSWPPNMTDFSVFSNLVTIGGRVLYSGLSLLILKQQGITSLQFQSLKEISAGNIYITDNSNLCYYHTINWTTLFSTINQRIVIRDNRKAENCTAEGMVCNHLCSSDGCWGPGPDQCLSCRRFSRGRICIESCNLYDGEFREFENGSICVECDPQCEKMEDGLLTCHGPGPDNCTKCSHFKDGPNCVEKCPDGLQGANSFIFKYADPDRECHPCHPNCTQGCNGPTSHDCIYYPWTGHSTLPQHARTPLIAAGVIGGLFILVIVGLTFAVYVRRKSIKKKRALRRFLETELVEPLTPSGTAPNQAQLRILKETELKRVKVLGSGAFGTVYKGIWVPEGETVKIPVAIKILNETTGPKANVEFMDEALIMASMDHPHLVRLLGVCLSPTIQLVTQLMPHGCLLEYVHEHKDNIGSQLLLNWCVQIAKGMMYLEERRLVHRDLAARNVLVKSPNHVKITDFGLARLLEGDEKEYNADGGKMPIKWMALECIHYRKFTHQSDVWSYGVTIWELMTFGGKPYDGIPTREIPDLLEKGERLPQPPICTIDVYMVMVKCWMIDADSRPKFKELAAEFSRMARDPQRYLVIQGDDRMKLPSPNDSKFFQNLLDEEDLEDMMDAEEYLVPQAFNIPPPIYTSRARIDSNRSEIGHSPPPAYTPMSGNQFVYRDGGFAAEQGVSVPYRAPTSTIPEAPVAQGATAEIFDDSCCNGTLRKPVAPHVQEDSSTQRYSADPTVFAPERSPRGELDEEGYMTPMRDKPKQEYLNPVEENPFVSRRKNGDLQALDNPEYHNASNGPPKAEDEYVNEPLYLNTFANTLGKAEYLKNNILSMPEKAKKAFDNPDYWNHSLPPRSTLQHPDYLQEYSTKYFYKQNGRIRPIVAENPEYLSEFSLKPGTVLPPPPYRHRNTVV
Sequence of Mitogen-activated protein kinase 8 (Homo sapiens) (P45983 whole entry): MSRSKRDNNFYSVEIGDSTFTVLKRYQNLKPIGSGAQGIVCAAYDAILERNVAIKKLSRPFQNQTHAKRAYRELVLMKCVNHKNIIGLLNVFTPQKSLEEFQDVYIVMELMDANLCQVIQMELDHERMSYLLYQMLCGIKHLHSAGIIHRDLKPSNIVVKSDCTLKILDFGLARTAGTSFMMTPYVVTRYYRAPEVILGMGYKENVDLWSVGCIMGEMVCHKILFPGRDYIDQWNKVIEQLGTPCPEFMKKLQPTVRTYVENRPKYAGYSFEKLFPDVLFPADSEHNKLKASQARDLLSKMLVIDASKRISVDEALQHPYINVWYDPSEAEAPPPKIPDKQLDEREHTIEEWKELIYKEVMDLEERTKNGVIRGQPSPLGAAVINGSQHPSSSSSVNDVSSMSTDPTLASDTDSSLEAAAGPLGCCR
Sequence of Homeodomain-interacting protein kinase 2 (Homo sapiens) (Q9H2X6 whole entry, looked up): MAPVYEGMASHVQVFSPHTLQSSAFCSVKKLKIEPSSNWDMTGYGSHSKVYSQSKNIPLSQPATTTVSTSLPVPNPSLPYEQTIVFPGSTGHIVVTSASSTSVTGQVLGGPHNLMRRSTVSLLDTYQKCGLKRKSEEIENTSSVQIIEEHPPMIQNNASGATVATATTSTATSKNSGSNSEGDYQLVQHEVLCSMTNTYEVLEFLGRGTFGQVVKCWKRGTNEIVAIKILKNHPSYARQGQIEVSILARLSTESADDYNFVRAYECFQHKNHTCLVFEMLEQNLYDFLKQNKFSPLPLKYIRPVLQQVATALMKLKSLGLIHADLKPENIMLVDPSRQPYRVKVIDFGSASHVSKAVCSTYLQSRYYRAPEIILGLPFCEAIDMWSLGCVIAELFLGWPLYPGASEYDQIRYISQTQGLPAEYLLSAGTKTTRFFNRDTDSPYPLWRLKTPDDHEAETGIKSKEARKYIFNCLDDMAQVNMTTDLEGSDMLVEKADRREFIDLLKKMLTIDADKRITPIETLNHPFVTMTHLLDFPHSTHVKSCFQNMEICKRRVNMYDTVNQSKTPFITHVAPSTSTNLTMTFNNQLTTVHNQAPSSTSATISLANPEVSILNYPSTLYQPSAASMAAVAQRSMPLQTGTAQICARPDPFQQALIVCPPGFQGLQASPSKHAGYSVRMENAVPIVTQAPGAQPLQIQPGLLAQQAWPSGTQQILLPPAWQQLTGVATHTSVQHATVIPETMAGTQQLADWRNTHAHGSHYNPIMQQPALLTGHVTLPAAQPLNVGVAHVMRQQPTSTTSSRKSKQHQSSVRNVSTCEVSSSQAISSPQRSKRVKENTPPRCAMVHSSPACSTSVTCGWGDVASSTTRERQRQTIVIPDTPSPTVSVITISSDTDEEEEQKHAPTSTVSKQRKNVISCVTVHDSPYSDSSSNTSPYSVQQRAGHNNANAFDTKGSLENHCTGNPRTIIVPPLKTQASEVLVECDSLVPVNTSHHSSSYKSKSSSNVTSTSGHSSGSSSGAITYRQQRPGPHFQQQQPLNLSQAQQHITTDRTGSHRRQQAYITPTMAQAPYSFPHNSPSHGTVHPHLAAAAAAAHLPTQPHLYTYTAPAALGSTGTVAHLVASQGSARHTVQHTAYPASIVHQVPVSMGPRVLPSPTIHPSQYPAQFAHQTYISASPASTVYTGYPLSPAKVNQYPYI
Sequence of Serine/threonine-protein kinase PLK3 (Homo sapiens) (Q9H4B4 whole entry, looked up): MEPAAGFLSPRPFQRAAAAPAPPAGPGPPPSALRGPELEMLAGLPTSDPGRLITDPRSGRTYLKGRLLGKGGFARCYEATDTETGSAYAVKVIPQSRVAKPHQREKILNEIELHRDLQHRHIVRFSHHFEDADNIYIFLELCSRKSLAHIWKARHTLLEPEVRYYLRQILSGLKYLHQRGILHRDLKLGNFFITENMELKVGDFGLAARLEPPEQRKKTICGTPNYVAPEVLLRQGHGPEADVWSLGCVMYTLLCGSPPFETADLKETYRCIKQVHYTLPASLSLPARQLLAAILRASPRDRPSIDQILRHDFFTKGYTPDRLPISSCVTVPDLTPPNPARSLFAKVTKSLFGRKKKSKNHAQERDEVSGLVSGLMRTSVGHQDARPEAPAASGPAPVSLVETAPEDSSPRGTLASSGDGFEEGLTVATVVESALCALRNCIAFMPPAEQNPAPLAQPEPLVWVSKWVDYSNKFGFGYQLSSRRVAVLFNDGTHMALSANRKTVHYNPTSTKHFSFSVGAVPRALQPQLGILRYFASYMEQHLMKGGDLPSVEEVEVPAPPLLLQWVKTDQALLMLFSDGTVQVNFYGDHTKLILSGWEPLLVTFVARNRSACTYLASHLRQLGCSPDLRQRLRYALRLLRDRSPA
Sequence of Calcium/calmodulin-dependent protein kinase type II subunit beta (Homo sapiens) (Q13554 whole entry): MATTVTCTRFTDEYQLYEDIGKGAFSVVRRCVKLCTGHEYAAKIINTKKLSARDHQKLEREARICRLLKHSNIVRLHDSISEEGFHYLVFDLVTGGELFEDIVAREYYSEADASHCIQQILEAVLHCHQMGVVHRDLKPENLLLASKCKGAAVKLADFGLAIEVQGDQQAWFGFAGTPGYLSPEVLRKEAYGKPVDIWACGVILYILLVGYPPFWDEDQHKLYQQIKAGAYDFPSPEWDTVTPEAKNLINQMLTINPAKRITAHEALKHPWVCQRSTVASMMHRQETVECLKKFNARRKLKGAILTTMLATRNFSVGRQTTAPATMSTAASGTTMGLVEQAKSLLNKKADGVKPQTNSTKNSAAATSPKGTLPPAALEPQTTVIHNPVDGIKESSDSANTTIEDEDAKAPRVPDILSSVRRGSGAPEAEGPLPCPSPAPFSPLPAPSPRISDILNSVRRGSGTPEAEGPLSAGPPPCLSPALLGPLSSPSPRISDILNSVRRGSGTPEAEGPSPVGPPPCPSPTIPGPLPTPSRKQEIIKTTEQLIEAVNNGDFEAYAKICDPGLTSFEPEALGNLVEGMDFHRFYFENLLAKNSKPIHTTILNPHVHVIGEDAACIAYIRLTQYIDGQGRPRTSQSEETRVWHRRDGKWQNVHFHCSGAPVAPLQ
Sequence of G protein-coupled receptor kinase 5 (Homo sapiens) (P34947 whole entry, looked up): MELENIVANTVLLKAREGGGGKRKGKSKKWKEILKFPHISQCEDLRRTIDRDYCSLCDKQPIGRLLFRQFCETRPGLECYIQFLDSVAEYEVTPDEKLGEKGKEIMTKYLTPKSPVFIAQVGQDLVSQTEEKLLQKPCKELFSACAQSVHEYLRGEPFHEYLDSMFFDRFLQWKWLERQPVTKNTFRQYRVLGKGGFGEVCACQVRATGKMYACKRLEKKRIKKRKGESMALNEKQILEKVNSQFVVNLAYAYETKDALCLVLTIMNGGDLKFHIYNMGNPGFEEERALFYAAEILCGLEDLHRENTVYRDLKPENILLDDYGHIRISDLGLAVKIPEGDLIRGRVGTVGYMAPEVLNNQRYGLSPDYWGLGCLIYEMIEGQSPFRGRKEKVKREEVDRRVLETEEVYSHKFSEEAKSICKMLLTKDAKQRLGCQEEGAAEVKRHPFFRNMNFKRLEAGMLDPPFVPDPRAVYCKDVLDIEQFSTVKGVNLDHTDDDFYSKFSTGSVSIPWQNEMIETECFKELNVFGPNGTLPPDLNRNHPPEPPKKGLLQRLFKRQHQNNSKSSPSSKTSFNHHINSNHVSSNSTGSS

CCc1ccccc1C(=O)Nc1n[nH]c2c(C)c(F)c(C3C(C#N)=C(C)N(C)C(C)=C3C#N)cc12 [BAY-3827]
inactive: [1] 89% | [2] 90% | [3] 127% | [4] 101% | [5] 72% | [6] 102% | [7] 103% | [8] 103% | [9] 98% | [10] 100% | [11] 100% | [12] 88% | [13] 100%
